Source: PMC2981508 (Science (New York, N.Y.), 2009)

Assays:
progesterone receptor = molecular target: T1, progesterone receptor (Homo sapiens, UniProt P06401); experiment: in vitro fluorescence polarization binding assay
T1 sequence (P06401 1-933): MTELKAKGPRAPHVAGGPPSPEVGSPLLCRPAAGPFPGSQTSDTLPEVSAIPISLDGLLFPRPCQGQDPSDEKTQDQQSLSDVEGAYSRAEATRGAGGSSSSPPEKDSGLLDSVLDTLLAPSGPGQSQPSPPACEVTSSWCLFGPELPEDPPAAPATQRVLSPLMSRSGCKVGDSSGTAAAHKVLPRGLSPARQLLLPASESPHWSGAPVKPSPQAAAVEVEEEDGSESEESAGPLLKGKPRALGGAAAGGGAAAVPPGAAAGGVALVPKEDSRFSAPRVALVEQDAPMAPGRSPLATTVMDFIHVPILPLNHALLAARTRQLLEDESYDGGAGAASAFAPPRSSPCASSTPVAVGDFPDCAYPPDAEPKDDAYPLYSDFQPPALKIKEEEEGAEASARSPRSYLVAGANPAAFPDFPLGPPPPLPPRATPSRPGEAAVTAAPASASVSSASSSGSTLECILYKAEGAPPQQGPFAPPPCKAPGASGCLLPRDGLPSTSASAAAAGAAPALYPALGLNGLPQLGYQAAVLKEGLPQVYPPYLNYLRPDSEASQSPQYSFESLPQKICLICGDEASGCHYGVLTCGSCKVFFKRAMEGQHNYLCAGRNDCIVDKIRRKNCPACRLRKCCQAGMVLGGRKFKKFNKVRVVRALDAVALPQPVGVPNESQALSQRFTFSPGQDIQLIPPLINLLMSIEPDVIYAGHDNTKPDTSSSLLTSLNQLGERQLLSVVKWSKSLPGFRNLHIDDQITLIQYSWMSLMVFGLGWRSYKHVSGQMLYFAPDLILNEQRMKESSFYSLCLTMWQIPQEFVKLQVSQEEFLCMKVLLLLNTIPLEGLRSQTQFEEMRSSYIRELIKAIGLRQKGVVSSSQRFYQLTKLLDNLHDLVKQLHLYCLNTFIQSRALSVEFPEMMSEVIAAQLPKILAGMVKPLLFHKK

estrogen receptor = experiment: in vitro fluorescence polarization binding assay
[1] = system: AR target genes PSA and TMPRSS2 in LNCaP/AR cells; experiment: qRT-PCR of AR-dependent genes in LNCaP/AR cells; format: cell-based, human; settings: androgen-depleted media 5% CSS, 8 hours, 1 and 10 μM
[2] = system: PSA and TMPRSS2 in parental LNCaP cells; experiment: Antagonism of R1881 induction of PSA and TMPRSS2 in parental LNCaP cells; format: cell-based, human
VCaP cells [3] = experiment: VCaP cell proliferation; format: cell-based, human; settings: 1 and 10 μM, media containing FBS
VCaP cells [4] = experiment: VCaP apoptosis; format: cell-based, human; settings: 10 μM, 1 or 3 days, PARP cleavage
[5] = system: DU145 human prostate cancer cells; experiment: Growth of AR-negative DU145 cells in vitro; format: cell-based
[6] = molecular target: T2, mutant AR protein (W741C) (Homo sapiens, UniProt P10275, W742C); format: cell-based
T2 sequence (P10275 1-920 W742C): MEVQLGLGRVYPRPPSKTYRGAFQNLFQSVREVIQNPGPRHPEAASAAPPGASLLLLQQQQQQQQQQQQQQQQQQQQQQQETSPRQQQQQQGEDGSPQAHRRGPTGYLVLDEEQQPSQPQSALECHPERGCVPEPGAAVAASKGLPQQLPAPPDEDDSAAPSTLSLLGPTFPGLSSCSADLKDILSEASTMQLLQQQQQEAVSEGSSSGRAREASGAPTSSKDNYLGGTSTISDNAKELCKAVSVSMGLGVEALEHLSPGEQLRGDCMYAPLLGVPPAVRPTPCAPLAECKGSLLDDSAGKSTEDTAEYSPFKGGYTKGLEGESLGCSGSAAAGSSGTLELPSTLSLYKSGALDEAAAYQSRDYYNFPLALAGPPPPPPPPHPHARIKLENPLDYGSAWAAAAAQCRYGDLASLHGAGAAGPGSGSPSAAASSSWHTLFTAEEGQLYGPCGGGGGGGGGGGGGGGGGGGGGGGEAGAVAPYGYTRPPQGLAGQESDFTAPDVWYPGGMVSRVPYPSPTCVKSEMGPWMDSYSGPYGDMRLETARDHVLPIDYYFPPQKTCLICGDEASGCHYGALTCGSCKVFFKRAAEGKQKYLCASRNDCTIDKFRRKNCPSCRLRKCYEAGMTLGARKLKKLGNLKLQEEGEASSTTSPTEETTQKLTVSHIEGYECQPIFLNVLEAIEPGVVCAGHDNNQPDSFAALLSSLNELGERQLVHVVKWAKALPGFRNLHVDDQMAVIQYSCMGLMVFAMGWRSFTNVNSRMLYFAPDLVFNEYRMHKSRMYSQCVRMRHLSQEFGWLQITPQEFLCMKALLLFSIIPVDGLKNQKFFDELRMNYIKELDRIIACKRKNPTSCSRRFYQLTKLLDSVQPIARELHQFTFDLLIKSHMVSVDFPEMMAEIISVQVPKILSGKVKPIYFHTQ

LNCaP/AR xenografts = experiment: Ki-67 staining of LNCaP/AR xenografts; format: in vivo, mice; settings: after 5 days of treatment
[7] = system: DU145 prostate cancer xenografts; experiment: AR-negative DU145 prostate cancer xenografts; parameters: species or system mice; settings: mouse, in vivo
AR = format: cell-based; settings: in vitro
[8] = system: AR recruitment to PSA enhancer and TMPRSS2 enhancer in LNCaP/AR cells; experiment: Chromatin immunoprecipitation of AR in LNCaP/AR cells; format: cell-based, human
[9] = system: AR recruitment to PSA enhancer and TMPRSS2 enhancer in parental LNCaP cells; experiment: Chromatin immunoprecipitation of AR in parental LNCaP cells; format: cell-based, human
VP16-AR fusion protein = format: cell-based; settings: Cos-7 cells, 24 hours
[10] = Pharmacokinetics of RD162 in mice
[11] = Plasma levels in LNCaP/AR tumor-bearing mice; settings: 10 mg/kg oral daily, 20 hours after the final dose on day 28
LNCaP/AR tumors = experiment: LNCaP/AR xenograft model of CRPC in castrate male mice

SMILES: CNC(=O)c1ccc(N2C(=S)N(c3ccc(C#N)c(C(F)(F)F)c3)C(=O)C23CCC3)cc1F [RD162]
- binding to progesterone receptor (progesterone receptor): little to no binding
- binding to estrogen receptor (estrogen receptor): little to no binding
- Expression of AR target genes PSA and TMPRSS2 (agonist activity) [1]: do not have agonist activity
- Antagonism of induction of PSA and TMPRSS2 by R1881 [2]: antagonized induction
- Growth of VCaP cells (VCaP cells [3]): suppressed growth
- Apoptosis in VCaP cells (VCaP cells [4]): induced apoptosis
- Growth suppression in AR-negative DU145 cells [5]: not observed
- Transcriptional activity of mutant AR (W741C) [6]: inhibited the transcriptional activity
- cellular proliferation by Ki-67 staining (LNCaP/AR xenografts): substantially reduced
- growth of AR-negative DU145 xenografts [7]: neither bicalutamide nor RD162 impaired the growth
- effects on AR protein expression (AR): no obvious changes
- AR recruitment to PSA enhancer and TMPRSS2 enhancer [8]: Neither RD162 nor MDV3100 recruited AR
- AR recruitment to PSA enhancer and TMPRSS2 enhancer [9]: Neither RD162 nor MDV3100 recruited AR
- Activation of VP16-AR (VP16-AR fusion protein): neither RD162 nor MDV3100 activated VP16-AR
- bioavailable after oral delivery [10]: ~50%
- serum half-life [10]: about 30 hours
- Trough levels ([10]; 24 hours after a single 20 mg/kg oral dose): ~23 µM
- Plasma levels (mean) [11]: 24 µM
- antitumor activity (LNCaP/AR tumors; 0.1 mg/kg): some slowing of tumor growth
- antitumor activity (LNCaP/AR tumors; 1 mg/kg): a few tumor regressions
- Tumors no longer palpable (of 12) (LNCaP/AR tumors; 10 mg/kg oral daily, 28 days): three tumors
- Tumors regressed (12 tumors per group) (LNCaP/AR tumors; 10 mg/kg oral daily, 28 days): all twelve tumors
- Tumors regressed by greater than 50 percent (of 12) (LNCaP/AR tumors; 10 mg/kg oral daily, 28 days): nine tumors
- Median time to tumor progression (LNCaP/AR tumors; continual 10 mg/kg oral daily treatment): 186 days
